Target: benzodiazepine site of the GABAA receptor
Assay: GABAA receptor binding assay (displacement of 3H-Ro15-1788)
Conditions: rat cortical tissue homogenate, 0.5 nM 3H-Ro15-1788 [3H-Flumazenil], 30 min at 4° C.

Ki: 12 nM
Structure (SMILES): CC1CC(=O)c2c(C(=O)Nc3ccc(OCCO)nc3)c[nH]c2C1 (stereo not shown) [Compound 15, N-[(2-Hydroxyethoxy)pyrid-5-yl]-4-oxo-6-methyl-4,5,6,7-tetrahydro-1H-indole-3-carboxamide]

Source: patent US7109351B1, “Fused pyrrolecarboxamides; GABA brain receptor ligands” (Neurogen Corporation, priority 1999, dated 2006)
